Data: US4272437A, “Antibacterial agents, and 4-thio azetidinone intermediates” (priority 1979, dated 1981)
Values after ≈ are worked out from the molar mass of the structure shown. Read-outs that look alike come from different tables or passages of the source.

Columns and labels:
Str. pneumoniae A-9585 = assay: MIC, tube dilution, Streptococcus pneumoniae A9585; type: cell-based; conditions: Streptococcus pneumoniae, A9585, Str. pneumoniae A9585; overnight 37° C., Nutrient Broth; read-out: Minimum Inhibitory Concentration (M.I.C.)
Source text: (§1) Representative compounds of the present invention were subjected to in vitro antibiotic screening against a variety of microorganisms.

Str. pyogenes A-9604 = assay: MIC, tube dilution, Streptococcus pyogenes A9604; type: cell-based; conditions: Streptococcus pyogenes, A9604, Str. pyogenes A9604; overnight 37° C., Nutrient Broth; read-out: Minimum Inhibitory Concentration (M.I.C.)
Source text: as §1

Staph. aureus A-9537 = assay: MIC, tube dilution, Staphylococcus aureus A9537; type: cell-based; conditions: Staphylococcus aureus, A9537, Staph. aureus A9537; overnight 37° C., Nutrient Broth; read-out: Minimum Inhibitory Concentration (M.I.C.)
Source text: as §1

[1] = tested on: Staph. aureus A-9537 and 50% serum; assay: MIC, tube dilution, Staph. aureus A9537 + 50% serum; type: cell-based, Staphylococcus aureus; conditions: Staphylococcus aureus, overnight 37° C., read-out: Minimum Inhibitory Concentration (M.I.C.)
Source text: as §1

[2] = tested on: Staph. aureus (Pen-Res) A-9606; assay: MIC, tube dilution, Staphylococcus aureus A9606 (Pen-Res); type: cell-based; conditions: Staphylococcus aureus, overnight 37° C.
Source text: as §1

[3] = tested on: Staph. aureus (Meth-Res) A-15097; assay: MIC, tube dilution, Staphylococcus aureus A15097 (Meth-Res); type: cell-based; conditions: Staphylococcus aureus, overnight 37° C.
Source text: as §1

Str. faecalis A-20688 = assay: MIC, tube dilution, Streptococcus faecalis A20688; type: cell-based; conditions: Enterococcus faecalis, A20688, Str. faecalis A20688; overnight 37° C.; read-out: Minimum Inhibitory Concentration (M.I.C.)
Source text: as §1

E. coli A-15119 = assay: MIC, tube dilution, Escherichia coli A15119; type: cell-based; conditions: Escherichia coli, A15119, E. coli A15119; overnight 37° C.; read-out: Minimum Inhibitory Concentration (M.I.C.)
Source text: as §1

E. coli A-20341-1 = assay: MIC, tube dilution, Escherichia coli A20341-1; type: cell-based
Source text: as §1

K. pneumoniae A-15130 = assay: MIC, tube dilution, Klebsiella pneumoniae A15130; type: cell-based; conditions: Klebsiella pneumoniae, A15130, K. pneumoniae A15130; overnight 37° C.; read-out: Minimum Inhibitory Concentration (M.I.C.)
Source text: as §1

[4] = tested on: Klebsiella species A20468; assay: MIC, tube dilution, Klebsiella species A20468; type: cell-based; conditions: Klebsiella species (K. pneumoniae) A20468; overnight 37° C.; read-out: Minimum Inhibitory Concentration (M.I.C.)
Source text: as §1

Pr. mirabilis A-9900 = assay: MIC, tube dilution, Proteus mirabilis A9900; type: cell-based; conditions: Proteus mirabilis, A9900, Proteus mirabilis A9900; overnight 37° C.; read-out: Minimum Inhibitory Concentration (M.I.C.)
Source text: as §1

Pr. morganii A-15153 = assay: MIC, tube dilution, Proteus morganii A15153; type: cell-based; conditions: Morganella morganii, A15153, Proteus morganii A15153; overnight 37° C.; read-out: Minimum Inhibitory Concentration (M.I.C.)
Source text: as §1

Ser. marcescens A-20019 = assay: MIC, tube dilution, Serratia marcescens A20019; type: cell-based; conditions: Serratia marcescens, A20019, Serratia marcescens A20019; overnight 37° C.; read-out: Minimum Inhibitory Concentration (M.I.C.)
Source text: as §1

Ent. cloacae A-9659 = assay: MIC, tube dilution, Enterobacter cloacae A9659; type: cell-based; conditions: Enterobacter cloacae, A9659, Enterobacter cloacae A9659; overnight 37° C.; read-out: Minimum Inhibitory Concentration (M.I.C.)
Source text: as §1

Ent. cloacae A-9656 = assay: MIC, tube dilution, Enterobacter cloacae A9656; type: cell-based; conditions: overnight 37° C., read-out: Minimum Inhibitory Concentration (M.I.C.)
Source text: as §1

Ps. aeruginosa A-9843A = assay: MIC, tube dilution, Pseudomonas aeruginosa A9843A; type: cell-based; conditions: Pseudomonas aeruginosa, A9843A, read-out: Minimum Inhibitory Concentration (M.I.C.), Pseudomonas aeruginosa A9843A; overnight 37° C.
Source text: as §1

Ps. aeruginosa A-21213 = assay: MIC, tube dilution, Pseudomonas aeruginosa A21213; type: cell-based; conditions: overnight 37° C., read-out: Minimum Inhibitory Concentration (M.I.C.)
Source text: as §1

Proteus rettgeri A21203 = assay: MIC, tube dilution, Proteus rettgeri A21203; type: cell-based; conditions: Providencia rettgeri, overnight 37° C., read-out: Minimum Inhibitory Concentration (M.I.C.)
Source text: as §1

Proteus vulgaris A9555 = assay: MIC, tube dilution, Proteus vulgaris (mirabilis) A9555; type: cell-based; conditions: overnight 37° C., read-out: Minimum Inhibitory Concentration (M.I.C.)
Source text: as §1

[5] = stability in aqueous solution followed by UV; type: physicochemical; set-up: unit not given here; conditions: for ε at λmax 255 in aqueous solution (stability) / ε at λmax 307 in aqueous solution (stability) / ε at λmax 254 in aqueous solution (stability): UV
Protocol: To a solution of penem 3 (2.4 g, 6.89 mmoles) in tetrahydrofuran-ether-water mixture (1:1:1, 165 ml) was added 30% palladium on diatomaceous earth (4.8 g). The reaction mixture was hydrogenated under 45 p.s.i. at 23° C. for 2.5 h and filtered over celite pad. The filtrate and washings were combined, washed twice with ether, centrifugated and filtered several times to give a clear solution which was lyophilized; 0.622 g, 45%. The crystallization of the compound was induced by the addition of water (0.8 ml); the suspension was centrifuged and the water was removed leaving an orange solid. This solid was washed twice with water and a slightly yellow solid was obtained after drying: […], 19.8%. UV λmax^H.sbsp.2^O : 307 (ε=4318) and 257 (ε=2650). Some crude starting material (1.2 g, 50%) was recovered. The compound (50 mg) can also be purified by column chromatography [Sephadex G10, column size: 1.6×100 cm, flow rate: 10 ml/h, eluent: distilled water, fraction volume: 1.5 ml, detector: refractive index]. UV λmax^H.sbsp.2^O 307 (ε=3597) and 255 (ε=2424).
The stability of the compound in aqueous solution was checked by:
A sample of compound 4 was kept at 23° C. for 3 days and the UV was taken: UV λmax^H.sbsp.2^O : 307 (ε=3055) and 255 (ε=2008).
To a solution of ester 6 (200 mg, 0.5 mmole) in tetrahydrofuran (10 ml) was added ether (10 ml), water (10 ml) and 30% palladium on diatomaceous earth (200 mg). The reaction mixture was hydrogenated in a Parr apparatus under 35 p.s.i. at 25° C. for 2 h 30 min and filtered over a celite pad. The filtrate was washed twice with ether and the aqueous solution was lyophilized, giving a yellow powder which was purified by column chromatography [Sephadex G-10, bed dimensions: 100×1.6 cm, flow rate: 12 ml/h, eluent: distilled water, fraction volume: 1.5 ml detector: refractive index]. The right fractions were combined and lyophilized to give a white powder (10 mg, 8.8%). UV λmax^H.sbsp.2 O 301 (ε=4930), 258 (ε=3290). IR (KBr) cm^-1 :1770 (c=o of β-lactam) and 1580 [drawing 587] The stability of compound 7 in aqueous solution was followed by UV; after 6 h: 301 (4795) and 258 (3105) and after 72 h: 301 (4565) and 258 (3150). […]

Pr. vulgaris A-9716 = assay: MIC, tube dilution, Proteus vulgaris / Proteus mirabilis A9716; type: cell-based, Proteus vulgaris (name changed to Proteus mirabilis); conditions: Proteus vulgaris, A9716, Proteus vulgaris / Proteus mirabilis A9716; overnight 37° C.; read-out: Minimum Inhibitory Concentration (M.I.C.)
Source text: as §1

[6] = read-out: Minimum Inhibitory Concentration (M.I.C.), Staph. aureus A9606 (Pen-Res)
[7] = read-out: Minimum Inhibitory Concentration (M.I.C.), Staph. aureus A15097 (Meth-Res)
[8] = Escherichia coli, A203411; E. coli A20341-1; overnight 37° C.; read-out: Minimum Inhibitory Concentration (M.I.C.)
[9] = sample kept at 23° C. for 3 days, UV in H2 O
[10] = Staph. aureus A9606 (Pen-Res), read-out: Minimum Inhibitory Concentration (M.I.C.)
[11] = Staph. aureus A15097 (Meth-Res), read-out: Minimum Inhibitory Concentration (M.I.C.)
[12] = Escherichia coli, A203411, E. coli A20341-1; overnight 37° C.; read-out: Minimum Inhibitory Concentration (M.I.C.)
[13] = Enterobacter cloacae, A9656, Enterobacter cloacae A9656
[14] = A21203, Proteus rettgeri A21203

| Structure (SMILES) | MIC (Str. pneumoniae A-9585) [µg/mL] | MIC (Str. pyogenes A-9604) [µg/mL] | MIC (Staph. aureus A-9537) [µg/mL] | MIC [1] [µg/mL] | MIC [2, 6] [µg/mL] | MIC [3, 7] [µg/mL] | MIC (Str. faecalis A-20688) [µg/mL] | MIC (E. coli A-15119) [µg/mL] | MIC (E. coli A-20341-1; [8]) [µg/mL] | MIC (K. pneumoniae A-15130) [µg/mL] | MIC [4] [µg/mL] | MIC (Pr. mirabilis A-9900) [µg/mL] | MIC (Pr. morganii A-15153) [µg/mL] | MIC (Ser. marcescens A-20019) [µg/mL] | MIC (Ent. cloacae A-9659) [µg/mL] | MIC (Ent. cloacae A-9656; Enterobacter cloacae A9656) [µg/mL] | MIC (Ps. aeruginosa A-9843A) [µg/mL] | MIC (Ps. aeruginosa A-21213; Pseudomonas aeruginosa A21213) [µg/mL] | MIC (Proteus rettgeri A21203; Proteus rettgeri A21203) [µg/mL] | MIC (Proteus vulgaris A9555) [µg/mL] | also measured |
| --- | --- | --- | --- | --- | --- | --- | --- | --- | --- | --- | --- | --- | --- | --- | --- | --- | --- | --- | --- | --- | --- |
| CC(C)OP(=O)(CCC1=C(C(=O)O)N2C(=O)CC2S1)OC(C)C (stereo not drawn) [Preparation 54] | 63 (≈ 173 µM) | 125 (≈ 344 µM) | 32 (≈ 88.1 µM) | 32 | > 125 | 63 (≈ 173 µM) | 63 (≈ 173 µM) | 63 (≈ 173 µM) | 32 (≈ 88.1 µM) | > 125 | 63 (≈ 173 µM) | 125 (≈ 344 µM) | 125 (≈ 344 µM) | 125 (≈ 344 µM) | 125 (≈ 344 µM) | 32 (≈ 88.1 µM) | 125 (≈ 344 µM) | 125 (≈ 344 µM) | 125 (≈ 344 µM) | > 125 |  |
| NCC1=C(C(=O)O)N2C(=O)CC2S1 (stereo not drawn) [Example 16, 2-Aminomethylpenem-3-carboxylic Acid] | 1 (≈ 4.99 µM) | 4 (≈ 20 µM) | 2 (≈ 9.99 µM) | 32 |  |  | > 125 | 4 (≈ 20 µM) |  | 8 (≈ 40 µM) | 125 (≈ 624 µM) | 2 (≈ 9.99 µM) | 1 (≈ 4.99 µM) | 8 (≈ 40 µM) | 8 (≈ 40 µM) |  | 1 (≈ 4.99 µM) |  |  |  | ε at λmax 255 in aqueous solution (stability) ([5]; 6 h): 2773; ε at λmax 307 in aqueous solution (stability) ([5]; 6 h): 3545; ε at λmax 255 in aqueous solution (stability) ([5]; 21 h): 2411; ε at λmax 307 in aqueous solution (stability) ([5]; 21 h): 3467; ε at λmax 254 in aqueous solution (stability) ([5]; 28 h): 2398; ε at λmax 307 in aqueous solution (stability) ([5]; 28 h): 3337; ε at λmax 254 in aqueous solution (stability) ([5]; 46 h): 2398; ε at λmax 307 in aqueous solution (stability) ([5]; 46 h): 3259; ε at λmax 307 in aqueous solution (stability) ([5]; 70 h): 3076; ε at λmax 307 in aqueous solution (stability) ([5]; 94 h): 2842; ε at λmax 307 in aqueous solution (stability) ([5]; 170 h): 1900; ε at λmax 255 (stability of stored sample) [5, 9]: 2008; ε at λmax 307 (stability of stored sample) [5, 9]: 3055; MIC [2, 10]: 8 µg/mL (≈ 40 µM); MIC [3, 11]: 63 µg/mL (≈ 315 µM); MIC (E. coli A-20341-1; [12]): 16 µg/mL (≈ 79.9 µM); MIC (Pr. vulgaris A-9716): 2 µg/mL (≈ 9.99 µM); MIC (Ent. cloacae A-9656; [13]): 8 µg/mL (≈ 40 µM); MIC (Ps. aeruginosa A-21213; Pseudomonas aeruginosa, A21213, Pseudomonas aeruginosa A21213): 1 µg/mL (≈ 4.99 µM); MIC (Proteus rettgeri A21203; [14]): 1 µg/mL (≈ 4.99 µM) |
| CC1=C(C(=O)O)N2C(=O)[C@@H](CO)[C@H]2S1 (relative stereo) [Example 68, trans 6-Hydroxymethyl-2-methylpenem-3-carboxylic Acid] | 4 (≈ 18.6 µM) | 16 (≈ 74.3 µM) | 16 (≈ 74.3 µM) | > 63 |  |  | 125 (≈ 581 µM) | 63 (≈ 293 µM) |  | 63 (≈ 293 µM) | 125 (≈ 581 µM) | 63 (≈ 293 µM) | 125 (≈ 581 µM) | 63 (≈ 293 µM) | 63 (≈ 293 µM) |  | 125 (≈ 581 µM) | 125 (≈ 581 µM) |  | 63 (≈ 293 µM) | MIC [2, 10]: 63 µg/mL (≈ 293 µM); MIC [3, 11]: 63 µg/mL (≈ 293 µM); MIC (E. coli A-20341-1; [12]): 63 µg/mL (≈ 293 µM); MIC (Ent. cloacae A-9656; [13]): 63 µg/mL (≈ 293 µM); MIC (Proteus rettgeri A21203; [14]): 63 µg/mL (≈ 293 µM) |
| O=C([O-])C1=C(c2cccnc2)S[C@@H]2CC(=O)N12.[Na+] [Example 53, Sodium 2-(3-Pyridyl)penem-3-carboxylate] | 0.06 | 0.13 | 1 | > 63 | 8 | 16 | 8 | 2 | 63 | 16 | > 125 | 2 | 8 | 8 | 16 | 32 | 125 | 125 | 2 | 2 |  |
